{"source": "patent US20120207744A1", "about": "“REPROGRAMMING COMPOSITIONS AND METHODS OF USING THE SAME” (priority 2009, published 2012)", "origin": "cited, not measured here", "molecules": {"B1": {"name": "IFN-gamma: IFN-gamma, cytokine inducing Klf-4 expression via phosphorylated STAT1 (protein, UniProt P01579 24-161, looked up)", "Interferon gamma": "QDPYVKEAENLKKYFNAGHSDVADNGTLFLGILKNWKEESDRKIMQSQIVSFYFKLFKNFKDDQSIQKSVETIKEDMNVKFFNSNKKKRDDFEKLTNYSVTDLNVQRKAIHELIQVMAELSPAAKTGKRKRSQMLFRG"}, "B2": {"name": "Wnt3a: Wnt protein activating Wnt/β-catenin signaling (protein, UniProt P56704 19-352, looked up)", "Protein Wnt-3a": "SYPIWWSLAVGPQYSSLGSQPILCASIPGLVPKQLRFCRNYVEIMPSVAEGIKIGIQECQHQFRGRRWNCTTVHDSLAIFGPVLDKATRESAFVHAIASAGVAFAVTRSCAEGTAAICGCSSRHQGSPGKGWKWGGCSEDIEFGGMVSREFADARENRPDARSAMNRHNNEAGRQAIASHMHLKCKCHGLSGSCEVKTCWWSQPDFRAIGDFLKDKYDSASEMVVEKHRESRGWVETLRPRYTYFKVPTERDLVYYEASPNFCEPNPETGSFGTRDRTCNVSSHGIDGCDLLCCGRGHNARAERRREKCRCVFHWCCYVSCQECTRVYDVHTCK"}}, "key": {"ESCs": {"system": "ESCs", "settings": "cyclic activation of Wnt/β-catenin signaling in ESCs"}, "[1]": {"system": "mouse embryonic fibroblasts", "settings": "small-molecule combination BIX-01294 and BayK8644"}, "human ESCs": {"system": "human ESCs", "settings": "both appear equally effective in facilitating clonal growth"}, "ES-cell": {"system": "ES-cell", "settings": "repression of MEK/ERK, in culture"}, "ROCK1/ROCK2": {"system": "ROCK1/ROCK2", "settings": "inhibits by competing with ATP; Ishizaki et al. 2000"}, "Oct-3/4-GFP": {"system": "Oct-3/4-GFP", "settings": "Oct-3/4-GFP as a reporter"}, "[2]": {"system": "primary human fibroblasts", "settings": "Oct-3/4 and Sox-2, without c-Myc or Klf-4"}, "Klf-4 promoter": {"system": "Klf-4 promoter", "settings": "transient transfection, 2622-bp mouse Klf-4 promoter"}}, "note": "Counter-ions that a name gives are not always drawn.", "data": [{"molecule": "O=C1Nc2cc(Br)ccc2/C1=C1/Nc2ccccc2/C1=N\\O", "note": "[6-bromoindirubin-3′-oxime]", "values": [{"measurement": "ability of ESCs to reprogram somatic cells after fusion", "setting": "ESCs", "value": "strikingly enhances"}]}, {"molecule": "COc1cc2nc(N3CCCN(C)CC3)nc(NC3CCN(Cc4ccccc4)CC3)c2cc1OC", "note": "[BIX-01294]", "values": [{"measurement": "reprogramming of Oct-3/4/Klf-4 transduced cells", "setting": "[1]", "value": "enables reprogramming"}]}, {"molecule": "COC(=O)C1=C(C)NC(C)=C([N+](=O)[O-])C1c1ccccc1C(F)(F)F", "note": "(stereo not drawn) [BayK8644]", "values": [{"measurement": "reprogramming of Oct-3/4/Klf-4 transduced cells", "setting": "[1]", "value": "enables reprogramming"}]}, {"molecule": "Cc1cncc2cccc(S(=O)(=O)N3CCCNC[C@@H]3C)c12.Cl.Cl", "note": "[H-1152, (S)-(+)-2-methyl-1-[(4-methyl-5-isoquinolinyl)sulfonyl]homopiperazine dihydrochloride]", "values": [{"measurement": "working concentration for facilitating clonal growth, relative to HA-100", "setting": "human ESCs", "value": "ten times lower working concentrations than HA-100"}]}, {"molecule": "COc1cccc(-c2cc(=O)c3ccccc3o2)c1N", "note": "[PD098059]", "values": [{"measurement": "effect on differentiation and ES-cell self-renewal", "setting": "ES-cell", "value": "inhibits differentiation and maintains ES-cell self-renewal in culture"}]}, {"molecule": "N#CC(=C(/N)Sc1ccccc1N)/C(C#N)=C(\\N)Sc1ccccc1N", "note": "[U0126]", "values": [{"measurement": "effect on enterostatin-induced inhibition of KLF4 gene expression", "setting": "GT1-7 cells; GT1-7 cells, ERK inhibitor", "value": "blocked"}]}, {"molecule": "C[C@@H](N)[C@H]1CC[C@H](C(=O)Nc2ccncc2)CC1", "note": "[Y-27632, (+)-(R)-trans-4-(1-aminoethyl)-N-(4-pyridyl)cyclohexanecarboxamide dihydrochloride]", "values": [{"measurement": "IC50", "setting": "ROCK1/ROCK2", "value": 800, "unit": "nM"}]}, {"molecule": "CCCC(CCC)C(=O)O", "note": "[valproic acid]", "values": [{"measurement": "improvement of reprogramming efficiency", "setting": "Oct-3/4-GFP", "value": "more than 100 fold"}, {"measurement": "reprogramming with only two factors", "setting": "[2]", "value": "enables reprogramming of primary human fibroblasts"}]}, {"molecule": "enterostatin", "values": [{"measurement": "effect on KLF4 gene expression", "setting": "GT1-7 cells; GT1-7 cells treated with the peptide", "value": "inhibited KLF4 gene expression"}]}, {"molecule": "B1", "values": [{"measurement": "increase of Klf-4 promoter activity", "setting": "Klf-4 promoter", "value": 3.5, "unit": "fold"}]}, {"molecule": "B2", "values": [{"measurement": "ability of ESCs to reprogram somatic cells after fusion", "setting": "ESCs", "value": "strikingly enhances"}]}]}
